System: U2OS_Bim cells
Assay: Apoptosis inhibition assay (Bim-induced apoptosis, cell viability by ATP level)
Format: cell-based
Conditions: U2OS_Bim cells; estimated (*Est.) / preliminary results; numbering of Tables 4a/4b; read-out: EC50
Summary of the method: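 Apoptosis was triggered by doxycycline (0.1 μg/mL) induction of Bim, one hour after compound addition to U2OS_Bim cells. Survival was measured after 24 h from cellular ATP (CellTiter-Glo), relative to DMSO, with zVAD at 20 μM as rescue control. Data are duplicate means, some estimated from preliminary results.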

SMILES	EC50
Cc1cc(-c2cc(F)c(=O)n(Cc3ccc4c(c3)OCO4)c2)nc(S(=O)(=O)CCC(OCc2ccccc2F)c2cccnc2)n1 (stereo not drawn) [Compound 384]	1 to 1000 nM

Same assay, conditions: U2OS_Bim cells; estimated based on preliminary results; numbering of Tables 4a/4b; read-out: EC50

SMILES	EC50
CCOc1cccc(Cn2cc(-c3cc(C(F)(F)F)nc([S+](C)[O-])n3)ccc2=O)c1 (stereo not drawn) [Compound 268]	< 10000 nM
CS(=O)(=O)c1nc(-c2ccc(=O)n(Cn3ccc4ccccc43)c2)cc(C(F)(F)F)n1 [Compound 256]	< 10000 nM
COc1ccc(Cn2cc(-c3cc(-c4ccc[nH]4)nc(S(C)(=O)=O)n3)ccc2=O)cc1OC [Compound 204]	< 10000 nM

Same assay, conditions: U2OS_Bim cells; means of duplicates; numbering of Tables 4a/4b; read-out: EC50

SMILES	EC50
COc1ccc(Cn2cc(-c3cc(C(F)F)nc(S(=O)(=O)CCC(Cl)c4ccccc4)n3)ccc2=O)cc1OC (stereo not drawn) [Compound 279, 5-(2-((3-chloro-3-phenylpropyl)sulfonyl)-6-(difluoromethyl)pyrimidin-4-yl)-1-(3,4-dimethoxybenzyl)pyridin-2 (1H)-one]	1 to 1000 nM
COc1ccc(-c2cc(C(F)(F)F)nc([S+](C)[O-])n2)cc1 (stereo not drawn) [Compound 54, 4-(4-methoxyphenyl)-2-(methylsulfinyl)-6-(trifluoromethyl)pyrimidine]	1000 to 20000 nM
COc1ccc(Cn2cc(-c3cc(C)nc([S+]([O-])CCC(OCc4ccccc4)c4ccccc4)n3)ccc2=O)cc1OC (stereo not drawn) [Compound 294, 5-(2-(3-(benzyloxy)-3-phenylpropylsulfinyl)-6-methylpyrimidin-4-yl)-1-(3,4-dimethoxybenzyl)pyridin-2 (1H)-one]	1 to 1000 nM
CS(=O)(=O)c1nc(N=[N+]=[N-])cc(-c2cccs2)n1 [Compound 41, 4-azido-2-(methylsulfonyl)-6-(thiophen-2-yl)pyrimidine]	< 100000 nM
COc1ccc(Cn2cc(-c3nc(S(=O)(=O)CCC(OCc4ccccc4)c4ccccc4)nc4ccccc34)ccc2=O)cc1OC (stereo not drawn) [Compound 293, 5-(2-((3-(benzyloxy)-3-phenylpropyl)sulfonyl)quinazolin-4-yl)-1-(3,4-dimethoxybenzyl)pyridin-2 (1H)-one]	1 to 1000 nM
COc1ccc(Cn2cc(-c3cc(C(F)(F)F)nc(S(=O)(=O)CCCC(=O)N4CCCC4)n3)ccc2=O)cc1OC [Compound 152, 1-(3,4-dimethoxybenzyl)-5-(2-((4-oxo-4-(pyrrolidin-1-yl)butyl)sulfonyl)-6-(trifluoromethyl)pyrimidin-4-yl)pyridin-2 (1H)-one]	1 to 1000 nM
CS(=O)(=O)c1nc(-c2ccc(F)cc2)cc(C(F)(F)F)n1 [Compound 45, 4-(4-fluorophenyl)-2-(methylsulfonyl)-6-(trifluoromethyl)pyrimidine]	1000 to 10000 nM

More lines, now with the values ahead:

EC50	SMILES
< 100000 nM	Cc1cc(-c2cc(F)c(=O)n(Cc3ccc(Cl)c(Cl)c3)c2)nc([S+]([O-])CCC(OCc2ccc(F)cc2F)c2ccccc2)n1 (stereo not drawn) [Compound 315, 1-(3,4-dichlorobenzyl)-5-(2-(3-(2,4-difluorobenzyloxy)-3-phenylpropylsulfinyl)-6-methylpyrimidin-4-yl)-3-fluoropyridin-2 (1H)-one]
1 to 1000 nM	COc1ccc(Cn2cc(-c3cc(C(F)F)nc(S(=O)(=O)CCC(OCc4ccccc4)c4ccccc4)n3)ccc2=O)cc1OC (stereo not drawn) [Compound 278, 5-(2-((3-(benzyloxy)-3-phenylpropyl)sulfonyl)-6-(difluoromethyl)pyrimidin-4-yl)-1-(3,4-dimethoxybenzyl)pyridin-2 (1H)-one]
1 to 1000 nM	O=c1c(F)cc(-c2cc(CF)nc(S(=O)(=O)CCC(OCc3ccccc3F)c3ccccc3)n2)cn1Cc1ccc2c(c1)OCO2 (stereo not drawn) [Compound 335, 1-(benzo[d][1,3]dioxol-5-ylmethyl)-3-fluoro-5-(2-((3-((2-fluorobenzyl)oxy)-3-phenylpropyl)sulfonyl)-6-(fluoromethyl)pyrimidin-4-yl)pyridin-2 (1H)-one]
1 to 1000 nM	Cc1cc(-c2cc(F)c(=O)n(CC3CCOCC3)c2)nc(S(=O)(=O)CCC(OCc2ccc(F)cc2F)c2ccccc2)n1 (stereo not drawn) [Compound 314, 5-(2-(3-(2,4-difluorobenzyloxy)-3-phenylpropylsulfonyl)-6-methylpyrimidin-4-yl)-3-fluoro-1-((tetrahydro-2H-pyran-4-yl)methyl)pyridin-2 (1H)-one]
